Measurements reported in ChEMBL document CHEMBL1201862, “PubChem BioAssay data set” (2004).
Several values for one entry are separate records, joined by “and”; a condition that tells them apart may be missing. Equal entries are not always repeated.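 Interpolation was linear, between the two tested concentrations surrounding the appropriate level; five concentrations were tested over 48 hours in 96-well plates. GI50: concentration for 50% inhibition of growth.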 Activity calls are given as the source filed them. Rule as the data show it: active = GI50 up to about 1.1 µM and inactive = higher.

Tests used:
Assay in all cases: NCI-60 cell line screen, 48 h
DMS-114 = system: DMS-114
NCI-H226 = system: NCI-H226
ACHN = system: ACHN
CCRF-CEM = system: CCRF-CEM
LOX IMVI = system: LOX IMVI
SN12C = system: SN12C
OVCAR-5 = system: OVCAR-5
SK-MEL-2 = system: SK-MEL-2
K562 = system: K562
SNB-75 = system: SNB-75
SW-620 = system: SW-620
EKVX = system: EKVX
U-251 = system: U-251
HCT-116 = system: HCT-116
DLD-1 = system: DLD-1
MOLT-4 = system: MOLT-4
MCF7 = system: MCF7

Structure (SMILES)	GI50 (DMS-114)	GI50 (NCI-H226)	GI50 (ACHN)	GI50 (CCRF-CEM)	GI50 (LOX IMVI)	GI50 (SN12C)	GI50 (OVCAR-5)	GI50 (SK-MEL-2)	GI50 (K562)	GI50 (SNB-75)	GI50 (SW-620)	GI50 (EKVX)	GI50 (U-251)	GI50 (HCT-116)	GI50 (DLD-1)	GI50 (MOLT-4)	GI50 (MCF7)
CC(=O)Nc1ccc(-c2nnc(SCC(=O)Nc3ccc(Cl)cc3)o2)cc1	1.85 µM (inactive)	11.1 µM (inactive)	12.7 µM (inactive)	3.5 µM (inactive)	5.33 µM (inactive)	10.4 µM (inactive)	16.4 µM (inactive)	17.5 µM (inactive)	5.83 µM (inactive)	21.5 µM (inactive)	6.21 µM (inactive)	21 µM (inactive)	3.38 µM (inactive)	7.74 µM (inactive)	10.4 µM (inactive)	11.2 µM (inactive)	–
O=C(/C=C/c1ccccc1O)c1ccccc1Cl	21.3 µM (inactive)	> 100 µM (inactive)	51.5 µM (inactive)	19.3 µM (inactive)	24.9 µM (inactive)	56.4 µM (inactive)	> 100 µM (inactive)	61.5 µM (inactive)	23.4 µM (inactive)	14.8 µM (inactive)	35.5 µM (inactive)	41.6 µM (inactive)	39.9 µM (inactive)	48.6 µM (inactive)	50.1 µM (inactive)	30.7 µM (inactive)	–
O=C(NC(=O)c1cn(CCNCCO)c(=O)[nH]c1=O)OCc1ccccc1	> 100 µM (inactive)	> 100 µM (inactive)	> 100 µM (inactive)	> 100 µM (inactive)	> 100 µM (inactive)	> 100 µM (inactive)	> 100 µM (inactive)	–	> 100 µM (inactive)	45.9 µM (inactive)	> 100 µM (inactive)	> 100 µM (inactive)	> 100 µM (inactive)	> 100 µM (inactive)	> 100 µM (inactive)	> 100 µM (inactive)	–
COc1cccc2c1C(=O)c1c(O)c3c(c(O)c1C2=O)C[C@@](O)(C(=O)CO)C[C@@H]3OC1CC(N)C(O)C(C)O1 (stereo partly drawn)	0.0975 µM (active)	< 43.6 nM (active) and 58.1 nM (active)	0.255 µM (active)	34.8 nM (active) and 44.9 nM (active)	52.1 nM (active) and 44.4 nM (active)	89.5 nM (active) and 170 nM (active)	658 nM (active) and 733 nM (active)	252 nM (active) and 203 nM (active)	–	–	79.4 nM (active) and 122 nM (active)	547 nM (active) and 301 nM (active)	44.9 nM (active) and 85.9 nM (active)	66.5 nM (active) and 72.6 nM (active)	–	16.9 nM (active) and 10 nM (active)	0.0169 µM (active)
CN(C)CCONC(=O)C12CC3CC(CC(C3)C1)C2	> 100 µM (inactive)	> 100 µM (inactive)	> 100 µM (inactive)	> 100 µM (inactive)	> 100 µM (inactive)	> 100 µM (inactive)	> 100 µM (inactive)	> 100 µM (inactive)	> 100 µM (inactive)	> 100 µM (inactive)	–	> 100 µM (inactive)	> 100 µM (inactive)	> 100 µM (inactive)	> 100 µM (inactive)	> 100 µM (inactive)	–
CCCCCC(=O)N[C@H]1CCc2cc(OC)c(OC)c(OC)c2-c2ccc(SC)c(=O)cc21	< 0.01 µM (active)	< 0.01 µM (active)	0.0374 µM (active)	0.0254 µM (active)	–	0.0315 µM (active)	47.3 µM (inactive)	–	< 0.01 µM (active)	0.0195 µM (active)	0.0177 µM (active)	0.0395 µM (active)	0.0224 µM (active)	0.02 µM (active)	< 0.01 µM (active)	0.0516 µM (active)	–
COC(=O)CCC(NC(=S)N/N=C(\C)c1ccccn1)C(=O)OC (stereo not drawn)	20.6 µM (inactive)	60.7 µM (inactive)	28.5 µM (inactive)	29.6 µM (inactive)	44.2 µM (inactive)	89.1 µM (inactive)	25.9 µM (inactive)	> 100 µM (inactive)	53.7 µM (inactive)	> 100 µM (inactive)	55.3 µM (inactive)	43.6 µM (inactive)	53.2 µM (inactive)	60.8 µM (inactive)	43 µM (inactive)	24.2 µM (inactive)	–
COc1c2c(c(OC)c3c(=O)cc(C/C(=N/NC(=O)C[n+]4ccccc4)C(=O)Nc4cc(C)ccc4C)oc13)OCO2	> 100 µM (inactive)	–	> 100 µM (inactive)	> 100 µM (inactive)	> 100 µM (inactive)	> 100 µM (inactive)	> 100 µM (inactive)	> 100 µM (inactive)	> 100 µM (inactive)	> 100 µM (inactive)	> 100 µM (inactive)	> 100 µM (inactive)	> 100 µM (inactive)	> 100 µM (inactive)	> 100 µM (inactive)	> 100 µM (inactive)	–
Cc1nc2c(n1CCN(C)C)C(=O)c1ccccc1C2=O	–	31.6 µM (inactive)	14.8 µM (inactive)	17.7 µM (inactive)	14.9 µM (inactive)	16.6 µM (inactive)	–	12.2 µM (inactive)	18.8 µM (inactive)	33.1 µM (inactive)	15.2 µM (inactive)	17.9 µM (inactive)	14.5 µM (inactive)	14.5 µM (inactive)	13.5 µM (inactive)	19.7 µM (inactive)	–
C=CCO[C@H]1CC[C@@]2(C)C(CC[C@]3(C)C2CC=C2[C@@H]4[C@@H](C)C(C)CC[C@]4(C(=O)O)CCC23C)C1(C)C (stereo partly drawn)	16.7 µM (inactive)	18.6 µM (inactive)	15.4 µM (inactive)	13.2 µM (inactive)	13.5 µM (inactive)	13.6 µM (inactive)	–	–	14.3 µM (inactive)	15.6 µM (inactive)	18.5 µM (inactive)	21.2 µM (inactive)	16.1 µM (inactive)	12.7 µM (inactive)	17.3 µM (inactive)	–	–
CN1C(OCc2ccccc2)c2c(ccc3c2OCO3)C2C=Cc3cc4c(cc3C21)OCO4 (stereo not drawn)	0.305 µM (active)	1.47 µM (inactive)	1.51 µM (inactive)	0.254 µM (active)	0.182 µM (active)	1.32 µM (inactive)	1.52 µM (inactive)	1.55 µM (inactive)	0.611 µM (active)	1.4 µM (inactive)	0.38 µM (active)	1.62 µM (inactive)	1.51 µM (inactive)	0.398 µM (active)	0.434 µM (active)	0.223 µM (active)	–
Clc1ccc(OCc2nnc3n2N=C(c2ccc(Br)cc2)CS3)cc1	13.1 µM (inactive)	53.1 µM (inactive)	23.2 µM (inactive)	> 100 µM (inactive)	3.74 µM (inactive)	52.8 µM (inactive)	> 100 µM (inactive)	23.4 µM (inactive)	> 100 µM (inactive)	2.96 µM (inactive)	32.7 µM (inactive)	–	30.7 µM (inactive)	22.6 µM (inactive)	> 10 µM (inactive)	> 100 µM (inactive)	–
CC(=O)O[C@H]1CC[C@@]2(C)C(=CC[C@@H]3C2CC[C@]2(C)Nc4nc5ccccc5cc4CC32)C1 (stereo partly drawn)	5.4 µM (inactive)	3.05 µM (inactive)	4.72 µM (inactive)	3.54 µM (inactive)	–	7.1 µM (inactive)	13.9 µM (inactive)	17 µM (inactive)	3.21 µM (inactive)	2.65 µM (inactive)	2.59 µM (inactive)	5.74 µM (inactive)	2.67 µM (inactive)	1.86 µM (inactive)	3.72 µM (inactive)	3.3 µM (inactive)	–
Cc1ccc(S(=O)(=O)N/N=C/c2oc(-c3ccncc3)c(-c3ccncc3)c2[N+](=O)[O-])cc1	–	> 100 µM (inactive)	> 100 µM (inactive)	> 100 µM (inactive)	> 100 µM (inactive)	> 100 µM (inactive)	> 100 µM (inactive)	> 100 µM (inactive)	> 100 µM (inactive)	> 100 µM (inactive)	> 100 µM (inactive)	> 100 µM (inactive)	> 100 µM (inactive)	> 100 µM (inactive)	> 100 µM (inactive)	> 100 µM (inactive)	–
CCN1C(=O)C(=CN)C(=O)N(CC)C1=O	> 100 µM (inactive)	> 100 µM (inactive)	> 100 µM (inactive)	> 100 µM (inactive)	> 100 µM (inactive)	> 100 µM (inactive)	> 100 µM (inactive)	> 100 µM (inactive)	> 100 µM (inactive)	14.7 µM (inactive)	> 100 µM (inactive)	> 100 µM (inactive)	10 µM (inactive)	> 100 µM (inactive)	> 100 µM (inactive)	> 100 µM (inactive)	–
COc1ccc(C2S/C(=C\c3ccc(OC)cc3OC)C(=O)N2NC(=O)Cc2ccccc2)cc1 (stereo not drawn)	> 100 µM (inactive)	> 100 µM (inactive)	> 100 µM (inactive)	89.5 µM (inactive)	> 100 µM (inactive)	> 100 µM (inactive)	> 100 µM (inactive)	> 100 µM (inactive)	98.9 µM (inactive)	> 100 µM (inactive)	> 100 µM (inactive)	–	> 100 µM (inactive)	> 100 µM (inactive)	> 100 µM (inactive)	> 100 µM (inactive)	–
CN(C)/N=C(/c1nc2ccc([N+](=O)[O-])cc2nc1O)C(O)c1ccco1 (stereo not drawn)	16.4 µM (inactive)	> 100 µM (inactive)	35.4 µM (inactive)	> 100 µM (inactive)	50 µM (inactive)	> 100 µM (inactive)	> 100 µM (inactive)	–	> 100 µM (inactive)	> 100 µM (inactive)	92.3 µM (inactive)	–	> 100 µM (inactive)	> 100 µM (inactive)	84.1 µM (inactive)	> 100 µM (inactive)	–
Cc1[nH]c2ccccc2c1C1CC(=O)NC1=O (stereo not drawn)	> 100 µM (inactive)	> 100 µM (inactive)	> 100 µM (inactive)	> 100 µM (inactive)	–	–	> 100 µM (inactive)	> 100 µM (inactive)	> 100 µM (inactive)	> 100 µM (inactive)	> 100 µM (inactive)	> 100 µM (inactive)	> 100 µM (inactive)	> 100 µM (inactive)	> 100 µM (inactive)	> 100 µM (inactive)	–
